The values that follow come from paper PMC5290737, “Surface mediated cooperative interactions of drugs enhance mechanical forces for antibiotic action” (Scientific Reports, 2017).

≈ marks a conversion by molar mass, not a printed value. Where “and” joins values, the source holds several entries; their conditions need not be identical. Equal entries are not always repeated.

For test [1] the following is noted: ligand-ligand dissociation constant in solution; ref. 2 (Van, CE, Ori), ref. 5 (Rist), supplementary references; read-out: K1 Solution (complex aggregation constant); cited from earlier work.
The subject of test [2] is methicillin-susceptible Staphylococcus aureus (MSSA) ATCC 29213. In words: MIC by broth microdilution (CLSI M07-A8), with PS80. The test is classed as cell-based. The procedure:
Determination of MIC values to methicillin-susceptible Staphylococcus aureus (MSSA).
Minimum Inhibitory Concentration (MIC) is defined as the lowest concentration of antibacterial agent required to inhibit growth of a microorganism after incubation. The antibiotics vancomycin (Van) and ristomycin (Rist) were obtained from Sigma-Aldrich while chloroeremomycin (CE) and oritavancin (Ori) were obtained from the Medicine Company Inc., U.S.A. To prepare antibiotic stock solutions for MICs assay, 5 mg/ml of each drug was dissolved in water containing an appropriate volume of 0.002% polysorbate-80 or PS80 obtained from Sigma-Aldrich which corresponds to 20 µM to eliminate nonspecific interactions of drugs to surfaces particularly for Ori which is known to bind to glass and plastics13. Microbiological broth with PS80 maintained at 20 µM was used in the drug dilution steps until the required final (assay) concentration. Diluted concentrations of each drug were assayed by adding an inoculum of methicillin-susceptible Staphylococcus aureus (MSSA) ATCC 29213 cells and the MIC determined by broth microdilution according to Clinical Laboratory Standards Institute (CLSI) methodology M07-A8 (CLSI 2009a)14. The results as shown in Supplementary Table S2 for each antibiotic against clinical isolate of MSSA ATCC 29213 strains conducted in the presence of […]
PS80 are within the quality control ranges defined in the guideline15. […]

For test [3], the system named is vancomycin resistant E. faecalis (VRE). Conditions: absence of polysorbate-80; ref. 2 (Van), ref. 5 (Rist, CE), ref. 9 (Ori), supplementary references; cited from earlier work.
Test [4] concerns membrane bound VRR (competitor Ac-VSR). In words: Competitive inhibition of drug-VRR cantilever response by Ac-VSR in solution. Format: binding. Conditions: for IC50: Van 50 μM or Ori 0.1 μM against VRR cantilever, fit of equation (1), read-out: IC50 (concentration of antagonist Ac-VSR giving 50% inhibition of drug-receptor interactions at the surface); for Ac-VSR concentration required to inhibit the mechanical response: Van 50 μM, Ori 0.1 μM against VRR. The procedure:
In the first set of experiments, we assessed whether the 2-D boundary layer could mediate more efficient complex aggregation of antibiotics and thus lead to enhanced signal transduction compared to a 3-D solution. To achieve this, diacetyl vancomycin susceptible receptor (or Ac-VSR)[14] was added to the solution containing Van or Ori in order to act as a competitor against membrane bound VRR. […] The concentrations of Van and Ori in solution were kept constant at 50 μM and 0.1 μM respectively. These particular concentrations were chosen because (1) they give rise to relatively large mechanical bending signals, (2) they fall within the linear portions of the Langmuir adsorption isotherms, and (3) they require relatively low levels of Ac-VSR to inhibit the mechanical response at the surface. We therefore reasoned that if the interaction between a drug and Ac-VSR is independent of any surface effects then the amount of Ac-VSR which inhibits the mechanical response at a surface is expected to be the same for both Van and Ori. The concentration of antagonist (Ac-VSR) that gives rise to 50% inhibition (IC50) of drug-receptor interactions at the surface was used as measure of membrane effects on the association kinetics and mechanical response. […] To calculate the IC50, we analyzed the data using equation (1), whose detailed derivation has been reported previously.
Here σeq is the equilibrium mechanical stress, σligand1 is the mechanical stress generated by ligand1 in the absence of a competing ligand2, σligand2 is the corresponding minimum stress generated by ligand1 in the presence of a large excess of the concentration of competing ligand2. […] The IC50 for Ori is 3-fold larger than that of Van.

The target of test [5] is VRR in solution. The note with it: ref. 1 (Van), ref. 6 (Rist), ref. 8 (CE), ref. 2 (Ori), supplementary references, read-out: Ksurf Solution; cited from earlier work.
The mark [6] stands for this setting: MSSA ATCC 29213, with PS80, converted from mg/l.

As for `CN[C@H](CC(C)C)C(=O)N[C@H]1C(=O)N[C@@H](CC(N)=O)C(=O)N[C@H]2C(=O)N[C@H]3C(=O)N[C@H](C(=O)N[C@H](C(=O)O)c4cc(O)cc(O)c4-c4cc3ccc4O)[C@H](O[C@H]3C[C@](C)(N)[C@@H](O)[C@H](C)O3)c3ccc(c(Cl)c3)Oc3cc2cc(c3O[C@@H]2O[C@H](CO)[C@@H](O)[C@H](O)[C@H]2O[C@H]2C[C@](C)(NCc3ccc(-c4ccc(Cl)cc4)cc3)[C@@H](O)[C@H](C)O2)Oc2ccc(cc2Cl)[C@H]1O` [Ori, oritavancin], the Kd in test [1] was 1.6 µM; in test [5] it was 4200 µM. The minimal inhibitory concentration (MIC) (commonly the smallest concentration in the dilution series that meets the test's criterion for growth inhibition) was 0.03 µM (≈ 0.0538 µg/mL) in test [2] (setting [6]); 0.06 µg/mL and 0.03 µM in test [2] (Staphylococcus aureus). In test [3], the “MIC VRE” value was 0.25 to 2 µg/mL. Besides, the “IC50 for Ori relative to Van” value in test [4] (Ac-VSR competition against VRR) is 3 fold. Also, the IC50 in test [4] came out at 50.7 ± 2.1 µM. The “Ac-VSR concentration required to inhibit the mechanical response” value in test [4] is “more than 500 μM”.
With `CN[C@H](CC(C)C)C(=O)N[C@H]1C(=O)N[C@@H](CC(N)=O)C(=O)N[C@H]2C(=O)N[C@H]3C(=O)N[C@H](C(=O)N[C@H](C(=O)O)c4cc(O)cc(O)c4-c4cc3ccc4O)[C@H](O)c3ccc(c(Cl)c3)Oc3cc2cc(c3O[C@@H]2O[C@H](CO)[C@@H](O)[C@H](O)[C@H]2O[C@H]2C[C@](C)(N)[C@H](O)[C@H](C)O2)Oc2ccc(cc2Cl)[C@H]1O` [Van, vancomycin], the Kd was 20000 µM in test [1] and 2400 µM in test [5]. Moreover, the MIC in test [2] (setting [6]) was 0.67 µM (≈ 0.971 µg/mL); in test [2] (Staphylococcus aureus), 1 µg/mL and 0.67 µM. Moreover, the “MIC VRE” value in test [3] was 512 µg/mL (≈ 353 µM). The IC50 in test [4] was 15.4 ± 0.2 µM. Also, in test [4], the “Ac-VSR concentration required to inhibit the mechanical response” value was found to be 500 µM.
